Laboratory results: ChEMBL document CHEMBL1201862, “PubChem BioAssay data set” (2004)
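96-well plates; 48 h exposure; 5 concentrations. Endpoints by linear interpolation between flanking doses. Not reached: highest tested concentration assigned. At the GI50, growth is halved.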 The source made the active and inactive calls. Cut-off read from the data, not from the text of the source: active = GI50 up to about 1.1 µM and inactive = higher.

Experiments:
Experiment in all cases: inhibition of tumour cell growth, NCI panel, 48 h
KM-20L2 = system: KM-20L2
RXF 631 = system: RXF 631
LXFL 529 = system: LXFL 529
XF498 = system: XF498
M19-MEL = system: M19-MEL
DMS-114 = system: DMS-114
HOP-18 = system: HOP-18
DMS-273 = system: DMS-273

Measured: GI50

CCOc1cc(/C=C/C=C/c2ccc(N(C)C)cc2)[s+]c2ccccc12
inactive: KM-20L2 71 µM | RXF 631 33 µM | LXFL 529 12.3 µM | XF498 20.8 µM | M19-MEL 26.2 µM | DMS-114 5.27 µM | HOP-18 99.1 µM | DMS-273 9.31 µM

CC1=C(Cl)C=CP(=O)(OC(C)C)C1 (stereo unspecified)
inactive: KM-20L2 > 100 µM | RXF 631 33.1 µM | LXFL 529 > 100 µM | M19-MEL > 100 µM | DMS-114 > 100 µM | HOP-18 > 100 µM

CC(=O)N(CCN)CCN
inactive: KM-20L2 > 10 µM | RXF 631 > 10 µM | LXFL 529 > 10 µM | XF498 > 100 µM | M19-MEL > 10 µM | DMS-114 > 10 µM | DMS-273 > 10 µM

CCCCCCCCCCCCC(=O)CCCCC(=O)O
inactive: RXF 631 18.7 µM | LXFL 529 18 µM | M19-MEL 18.2 µM | DMS-114 18.8 µM | HOP-18 16 µM | DMS-273 33.4 µM

COc1cc2c(cc1OC)[C@@H](C(O)c1ccccc1)NCC2 (stereo partly specified)
inactive: KM-20L2 > 100 µM | RXF 631 > 100 µM | LXFL 529 > 100 µM | XF498 > 100 µM | M19-MEL > 100 µM | DMS-114 > 100 µM | DMS-273 > 100 µM

CNS(=O)(=O)NN(C)S(=O)(=O)c1ccc(Cl)cc1
inactive: KM-20L2 > 100 µM | RXF 631 > 100 µM | LXFL 529 > 100 µM | XF498 > 100 µM | M19-MEL > 100 µM | DMS-114 > 100 µM | DMS-273 > 100 µM
